{"source": "patent US5578573A", "about": "“Viral integrase inhibiting peptides” (priority 1995, dated 1996)", "note": "Residues, ends and D or L forms follow the SMILES beside them."}
{"target": "T1, HIV integrase (Human immunodeficiency virus type 1 group M subtype B, UniProt P04585)", "T1 construct": "The HIV integrase used in these assays was expressed in E. coli; made in house; host or cells: E. coli", "assay": "biochemical", "assay_type": "biochemical", "details": "not given", "method": "(§1) HIV integrase activity was assayed by site-specific cleavage and integration of a 28 base pair synthetic oligonucleotide substrate representing HIV-1 U5 essentially as described by Vink et al., Nucl. Acids Res. 21:1419-1425 (1993), which is incorporated herein by reference. The HIV integrase used in these assays was expressed in E. coli and purified to near homogeneity.\n(§2) Briefly, 0.2 pmol 5'-^32 P-oligonucleotide substrate and 2 μM HIV integrase were incubated at 37° C. for 1 hr in 10 μl assay buffer (10 mM MOPS, pH 7.2, 50 mM NaCl, 3 mM MnCl2, 0.05 mM EDTA, 0.1 mM β-mercaptoethanol, 4% glycerol). Control integrase activity was determined in the absence of any peptide. The activity of a peptide to be tested was examined by adding the peptide to the appropriate concentration in a 2 μl volume. Reactions were stopped by addition of 10 μl formamide loading dye (95% formamide, 20 mM EDTA, 0.05% bromophenol blue, 0.05% xylene cyanol) and incubation at 80° C. for 3 min. A 5 μl aliquot of the sample was separated by electrophoresis on a 12% denaturing polyacrylamide gel. Migration was detected by autoradiography and integrase activity was quantified by densitometry. Inhibition of integrase activity by a peptide corresponded with the disappearance of the cleavage and integration products.", "units": {"IC50": "µM"}}
{"smiles": "N=C(N)NCCC[C@H](NC(=O)[C@H](Cc1c[nH]c2ccccc12)NC(=O)[C@H](Cc1ccccc1)NC(=O)[C@H](CCCCN)NC(=O)[C@H](CS)NC(=O)[C@@H](N)Cc1c[nH]cn1)C(N)=O", "note": "[compound 3] (H-HCKFWR-NH2)", "IC50": 8}
{"smiles": "CC[C@H](C)[C@H](NC(=O)[C@H](Cc1c[nH]c2ccccc12)NC(=O)[C@H](Cc1ccccc1)NC(=O)[C@H](CCCCN)NC(=O)[C@H](CS)NC(=O)[C@@H](N)Cc1c[nH]cn1)C(N)=O", "note": "[compound 11] (H-HCKFWI-NH2)", "IC50": 4}
{"smiles": "NCCCC[C@H](NC(=O)[C@H](CS)NC(=O)[C@@H](N)Cc1c[nH]cn1)C(=O)N[C@@H](Cc1ccccc1)C(=O)N[C@@H](Cc1c[nH]c2ccccc12)C(=O)N[C@@H](Cc1ccccc1)C(N)=O", "note": "[compound 15] (H-HCKFWF-NH2)", "IC50": 5}
{"smiles": "NCCCC[C@H](NC(=O)[C@H](CS)NC(=O)[C@@H](N)Cc1cnc[nH]1)C(=O)N[C@@H](Cc1ccccc1)C(=O)N[C@@H](Cc1c[nH]c2ccccc12)C(=O)N[C@@H](Cc1c[nH]c2ccccc12)C(N)=O", "note": "[compound 19] (H-HCKFWW-NH2)", "IC50": 2}
{"smiles": "C[C@H](N)C(=O)N[C@@H](CS)C(=O)N[C@@H](CCCCN)C(=O)N[C@@H](Cc1ccccc1)C(=O)N[C@@H](Cc1c[nH]c2ccccc12)C(=O)N[C@@H](Cc1c[nH]c2ccccc12)C(N)=O", "note": "[compound 22] (H-ACKFWW-NH2)", "IC50": 51}
{"smiles": "C[C@H](NC(=O)[C@@H](N)Cc1c[nH]cn1)C(=O)N[C@@H](CCCCN)C(=O)N[C@@H](Cc1ccccc1)C(=O)N[C@@H](Cc1c[nH]c2ccccc12)C(=O)N[C@@H](Cc1c[nH]c2ccccc12)C(N)=O", "note": "[compound 23] (H-HAKFWW-NH2)", "IC50": 30}
{"smiles": "C[C@H](NC(=O)[C@H](CS)NC(=O)[C@@H](N)Cc1c[nH]cn1)C(=O)N[C@@H](Cc1ccccc1)C(=O)N[C@@H](Cc1c[nH]c2ccccc12)C(=O)N[C@@H](Cc1c[nH]c2ccccc12)C(N)=O", "note": "[compound 24] (H-HCAFWW-NH2)", "IC50": 49}
{"smiles": "C[C@H](NC(=O)[C@H](CCCCN)NC(=O)[C@H](CS)NC(=O)[C@@H](N)Cc1c[nH]cn1)C(=O)N[C@@H](Cc1c[nH]c2ccccc12)C(=O)N[C@@H](Cc1c[nH]c2ccccc12)C(N)=O", "note": "[compound 25] (H-HCKAWW-NH2)", "IC50": 8}
{"smiles": "C[C@H](NC(=O)[C@H](Cc1ccccc1)NC(=O)[C@H](CCCCN)NC(=O)[C@H](CS)NC(=O)[C@@H](N)Cc1c[nH]cn1)C(=O)N[C@@H](Cc1c[nH]c2ccccc12)C(N)=O", "note": "[compound 26] (H-HCKFAW-NH2)", "IC50": 150}
{"smiles": "C[C@H](NC(=O)[C@H](Cc1c[nH]c2ccccc12)NC(=O)[C@H](Cc1ccccc1)NC(=O)[C@H](CCCCN)NC(=O)[C@H](CS)NC(=O)[C@@H](N)Cc1c[nH]cn1)C(N)=O", "note": "[compound 27] (H-HCKFWA-NH2)", "IC50": 210}
{"target": "T1, HIV integrase", "assay": "biochemical", "assay_type": "biochemical", "details": "50 μM peptide; results normalized to His-Cys-Lys-Phe-Trp-Trp-NH2 (SEQ ID NO: 19)", "method": "as §1, §2", "units": {"% Inhibition of HIV integrase activity": "%"}}
{"smiles": "C[C@H](NC(=O)[C@H](Cc1c[nH]c2ccccc12)NC(=O)[C@H](Cc1ccccc1)NC(=O)[C@H](CCCCN)NC(=O)[C@H](CS)NC(=O)[C@@H](N)Cc1c[nH]cn1)C(N)=O", "note": "[compound 2] (H-HCKFWA-NH2)", "% Inhibition of HIV integrase activity": 2}
{"smiles": "N=C(N)NCCC[C@H](NC(=O)[C@H](Cc1c[nH]c2ccccc12)NC(=O)[C@H](Cc1ccccc1)NC(=O)[C@H](CCCCN)NC(=O)[C@H](CS)NC(=O)[C@@H](N)Cc1c[nH]cn1)C(N)=O", "note": "[compound 3] (H-HCKFWR-NH2)", "% Inhibition of HIV integrase activity": 88}
{"smiles": "NCCCC[C@H](NC(=O)[C@H](CS)NC(=O)[C@@H](N)Cc1c[nH]cn1)C(=O)N[C@@H](Cc1ccccc1)C(=O)N[C@@H](Cc1c[nH]c2ccccc12)C(=O)N[C@@H](CC(N)=O)C(N)=O", "note": "[compound 4] (H-HCKFWN-NH2)", "% Inhibition of HIV integrase activity": 30}
{"smiles": "NCCCC[C@H](NC(=O)[C@H](CS)NC(=O)[C@@H](N)Cc1c[nH]cn1)C(=O)N[C@@H](Cc1ccccc1)C(=O)N[C@@H](Cc1c[nH]c2ccccc12)C(=O)N[C@@H](CC(=O)O)C(N)=O", "note": "[compound 5] (H-HCKFWD-NH2)", "% Inhibition of HIV integrase activity": 18}
{"smiles": "NCCCC[C@H](NC(=O)[C@H](CS)NC(=O)[C@@H](N)Cc1c[nH]cn1)C(=O)N[C@@H](Cc1ccccc1)C(=O)N[C@@H](Cc1c[nH]c2ccccc12)C(=O)N[C@@H](CS)C(N)=O", "note": "[compound 6] (H-HCKFWC-NH2)", "% Inhibition of HIV integrase activity": 30}
{"smiles": "NCCCC[C@H](NC(=O)[C@H](CS)NC(=O)[C@@H](N)Cc1c[nH]cn1)C(=O)N[C@@H](Cc1ccccc1)C(=O)N[C@@H](Cc1c[nH]c2ccccc12)C(=O)N[C@@H](CCC(=O)O)C(N)=O", "note": "[compound 7] (H-HCKFWE-NH2)", "% Inhibition of HIV integrase activity": 28}
{"smiles": "NCCCC[C@H](NC(=O)[C@H](CS)NC(=O)[C@@H](N)Cc1c[nH]cn1)C(=O)N[C@@H](Cc1ccccc1)C(=O)N[C@@H](Cc1c[nH]c2ccccc12)C(=O)N[C@@H](CCC(N)=O)C(N)=O", "note": "[compound 8] (H-HCKFWQ-NH2)", "% Inhibition of HIV integrase activity": 8}
{"smiles": "NCCCC[C@H](NC(=O)[C@H](CS)NC(=O)[C@@H](N)Cc1c[nH]cn1)C(=O)N[C@@H](Cc1ccccc1)C(=O)N[C@@H](Cc1c[nH]c2ccccc12)C(=O)NCC(N)=O", "note": "[compound 9] (H-HCKFWG-NH2)", "% Inhibition of HIV integrase activity": 82}
{"smiles": "NCCCC[C@H](NC(=O)[C@H](CS)NC(=O)[C@@H](N)Cc1c[nH]cn1)C(=O)N[C@@H](Cc1ccccc1)C(=O)N[C@@H](Cc1c[nH]c2ccccc12)C(=O)N[C@@H](Cc1c[nH]cn1)C(N)=O", "note": "[compound 10] (H-HCKFWH-NH2)", "% Inhibition of HIV integrase activity": 72}
{"smiles": "CC[C@H](C)[C@H](NC(=O)[C@H](Cc1c[nH]c2ccccc12)NC(=O)[C@H](Cc1ccccc1)NC(=O)[C@H](CCCCN)NC(=O)[C@H](CS)NC(=O)[C@@H](N)Cc1c[nH]cn1)C(N)=O", "note": "[compound 11] (H-HCKFWI-NH2)", "% Inhibition of HIV integrase activity": 96}
{"smiles": "CC(C)C[C@H](NC(=O)[C@H](Cc1c[nH]c2ccccc12)NC(=O)[C@H](Cc1ccccc1)NC(=O)[C@H](CCCCN)NC(=O)[C@H](CS)NC(=O)[C@@H](N)Cc1c[nH]cn1)C(N)=O", "note": "[compound 12] (H-HCKFWL-NH2)", "% Inhibition of HIV integrase activity": 8}
{"smiles": "NCCCC[C@H](NC(=O)[C@H](Cc1c[nH]c2ccccc12)NC(=O)[C@H](Cc1ccccc1)NC(=O)[C@H](CCCCN)NC(=O)[C@H](CS)NC(=O)[C@@H](N)Cc1c[nH]cn1)C(N)=O", "note": "[compound 13] (H-HCKFWK-NH2)", "% Inhibition of HIV integrase activity": 34}
{"smiles": "CSCC[C@H](NC(=O)[C@H](Cc1c[nH]c2ccccc12)NC(=O)[C@H](Cc1ccccc1)NC(=O)[C@H](CCCCN)NC(=O)[C@H](CS)NC(=O)[C@@H](N)Cc1c[nH]cn1)C(N)=O", "note": "[compound 14] (H-HCKFWM-NH2)", "% Inhibition of HIV integrase activity": 42}
{"smiles": "NCCCC[C@H](NC(=O)[C@H](CS)NC(=O)[C@@H](N)Cc1c[nH]cn1)C(=O)N[C@@H](Cc1ccccc1)C(=O)N[C@@H](Cc1c[nH]c2ccccc12)C(=O)N[C@@H](Cc1ccccc1)C(N)=O", "note": "[compound 15] (H-HCKFWF-NH2)", "% Inhibition of HIV integrase activity": 95}
{"smiles": "NCCCC[C@H](NC(=O)[C@H](CS)NC(=O)[C@@H](N)Cc1c[nH]cn1)C(=O)N[C@@H](Cc1ccccc1)C(=O)N[C@@H](Cc1c[nH]c2ccccc12)C(=O)N1CCC[C@H]1C(N)=O", "note": "[compound 16] (H-HCKFWP-NH2)", "% Inhibition of HIV integrase activity": 45}
{"smiles": "NCCCC[C@H](NC(=O)[C@H](CS)NC(=O)[C@@H](N)Cc1c[nH]cn1)C(=O)N[C@@H](Cc1ccccc1)C(=O)N[C@@H](Cc1c[nH]c2ccccc12)C(=O)N[C@@H](CO)C(N)=O", "note": "[compound 17] (H-HCKFWS-NH2)", "% Inhibition of HIV integrase activity": 40}
{"smiles": "C[C@@H](O)[C@H](NC(=O)[C@H](Cc1c[nH]c2ccccc12)NC(=O)[C@H](Cc1ccccc1)NC(=O)[C@H](CCCCN)NC(=O)[C@H](CS)NC(=O)[C@@H](N)Cc1c[nH]cn1)C(N)=O", "note": "[compound 18] (H-HCKFWT-NH2)", "% Inhibition of HIV integrase activity": 8}
{"smiles": "NCCCC[C@H](NC(=O)[C@H](CS)NC(=O)[C@@H](N)Cc1c[nH]cn1)C(=O)N[C@@H](Cc1ccccc1)C(=O)N[C@@H](Cc1c[nH]c2ccccc12)C(=O)N[C@@H](Cc1c[nH]c2ccccc12)C(N)=O", "note": "[compound 19] (H-HCKFWW-NH2)", "% Inhibition of HIV integrase activity": 100}
{"smiles": "NCCCC[C@H](NC(=O)[C@H](CS)NC(=O)[C@@H](N)Cc1c[nH]cn1)C(=O)N[C@@H](Cc1ccccc1)C(=O)N[C@@H](Cc1c[nH]c2ccccc12)C(=O)N[C@@H](Cc1ccc(O)cc1)C(N)=O", "note": "[compound 20] (H-HCKFWY-NH2)", "% Inhibition of HIV integrase activity": 75}
{"smiles": "CC(C)[C@H](NC(=O)[C@H](Cc1c[nH]c2ccccc12)NC(=O)[C@H](Cc1ccccc1)NC(=O)[C@H](CCCCN)NC(=O)[C@H](CS)NC(=O)[C@@H](N)Cc1c[nH]cn1)C(N)=O", "note": "[compound 21] (H-HCKFWV-NH2)", "% Inhibition of HIV integrase activity": 85}
